Patent publication US20260317324A1, “BIFUNCTIONAL COMPOUNDS FOR DEGRADING BRAF VIA UBIQUITIN PROTEOSOME PATHWAY” (Nurix Therapeutics, Inc., priority 2023, published 2026)

Target: T1, BRAF V600E (Homo sapiens, UniProt P15056, V600E)
T1 construct: endogenous C-terminal HiBiT fusion tag on BRAF V600E allele; endogenous in cells; host or cells: A375 clone 1F10 (CRISPR-Cas9 knock-in of the HiBiT tag; parental A375 from ATCC)
Assay: BRAF HiBiT degradation assay, C-terminal HiBiT-tagged BRAF V600E A375 cells (clone 1F10), Nano-Glo HiBiT Lytic assay
Assay type: cell-based
Settings: A375 (BRAF V600E); for DC50: DC50 at 50%: fitted conc. at Y=50; for Dmax: A-375, percentage protein degraded at maximal compound effect relative to DMSO
Text: An A375 cell line expressing a homozygous V600E mutation was purchased from ATCC (Manassas, VA, USA). An A375 clone 1F10 cell line with an endogenous C-terminal HiBiT fusion tag on BRAF V600E allele was generated internally using CRISPR-Cas9 technology and cultured in DMEM, high glucose supplemented with 10% FBS and 1× GlutaMAX. A HCT-116 BRAF−/− cell line overexpressing the C-terminal HiBiT-tagged G466V, G469A, and D594G mutants were generated by lentiviral transduction, externally at Biosettia Inc (San Diego, CA, USA). The stably transfected cells were cultured in RPMI media supplemented with 10% FBS, 1× GlutaMAX, and 0.25 μg/ml puromycin. DMEM medium, RPMI 1640 medium, GlutaMAX, fetal bovine serum (FBS), and puromycin were purchased from Gibco (Grand Island, NY, USA). HCT-116 BRAF−/− cells were purchased from Horizon Discovery (Waterbeach, UK).
The C-terminal HiBiT tagged BRAF A375 cells (monoclonal cell line, cell clone 1F10) were seeded at a density of 10,000 cells/well in 30 μL media (DMEM, high glucose supplemented with 10% FBS and 1× GlutaMAX) in white opaque 384-well plates (Corning #3570) from column 1 to column 23. The wildtype A375 cells were seeded in column 24 at the same cell density in 30 μL media. Cells were incubated at 37° C. with 5% CO2 for 24 h.
Intermediate compound dilution series (5-point, ranging from 5 mM to 0.5 μM, 10-fold dilutions in DMSO) were prepared in a source plate (Beckman Coulter cat. no. 001-16128). Final compound dilution series (11-point, ranging from 1 μM to 0.01 nM, half-log dilutions in DMSO) were stamped into the assay plate (Corning #3570, column 1-11 and 12-22) using the Echo Acoustic Liquid Handler (Beckman Coulter). Each compound was plated in duplicate, and the total volume of compound DMSO solution was 60 nL/well (0.2% final DMSO concentration). DMSO was included in wells A23-L23 and A24-L24. The DMSO-treated HiBiT-tagged samples served as Negative Control (NC) and the DMSO-treated wildtype samples served as Background Control (BC) for the HiBiT assay.
HiBiT signal was measured by a Nano-Glo HiBiT Lytic assay (Promega cat. no. N3050). HiBiT lytic detection reagent (Nano-Glo HiBiT Lytic Buffer with 1:50 Nano-Glo HiBiT Lytic Substrate and 1:100 LgBiT Protein, 40 μL) was added using Bravo. The mixture was incubated at room temperature, in the dark, and with gentle shaking for 10 min. Luminesce units (LU) were read on an EnVision plate reader 2105 (Perkin Elmer).
Percent protein remaining and viability remaining per sample were calculated as follows: […]
% Protein remaining values were plotted as a function of compound concentration. XC50 (DC50) values were determined by fitting curves using the following equation:
For the HiBiT degradation assay, the key parameters reported include: • The dose of compound that produces 50% degradation (DC50 at 50%): • DC50 at 50%: the Fitted X value (Conc.) at Y=50 (response) • Observed Dmax (Obs. Dmax) is the percentage protein degraded at maximal compound effect relative to DMSO-treated control: […]

T1 sequence (P15056 whole entry V600E, the tested form may be a part): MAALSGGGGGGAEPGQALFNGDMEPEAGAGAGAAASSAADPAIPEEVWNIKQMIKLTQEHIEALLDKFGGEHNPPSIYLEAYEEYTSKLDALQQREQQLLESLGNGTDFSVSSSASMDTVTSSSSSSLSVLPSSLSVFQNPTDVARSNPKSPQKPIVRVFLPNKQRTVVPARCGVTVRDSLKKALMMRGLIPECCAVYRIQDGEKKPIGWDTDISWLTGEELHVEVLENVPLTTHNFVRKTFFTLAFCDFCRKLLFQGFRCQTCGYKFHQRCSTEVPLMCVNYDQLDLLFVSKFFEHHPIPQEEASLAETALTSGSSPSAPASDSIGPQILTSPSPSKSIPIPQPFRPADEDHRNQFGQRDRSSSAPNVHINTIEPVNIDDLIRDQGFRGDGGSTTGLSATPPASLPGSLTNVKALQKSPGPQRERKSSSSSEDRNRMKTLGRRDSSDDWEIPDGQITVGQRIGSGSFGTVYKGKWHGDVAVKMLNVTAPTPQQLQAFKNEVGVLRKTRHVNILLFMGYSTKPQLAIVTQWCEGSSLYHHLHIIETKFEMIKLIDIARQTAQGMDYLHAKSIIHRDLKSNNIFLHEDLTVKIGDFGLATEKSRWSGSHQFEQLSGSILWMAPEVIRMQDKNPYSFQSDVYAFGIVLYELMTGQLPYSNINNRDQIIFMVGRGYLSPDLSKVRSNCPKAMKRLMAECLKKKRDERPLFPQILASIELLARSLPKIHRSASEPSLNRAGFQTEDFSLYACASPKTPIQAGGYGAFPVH

| SMILES | DC50 | Dmax |
| --- | --- | --- |
| CCCS(=O)(=O)Nc1cccc(-c2nc(C3CCN(CC4CCN(C(=O)CC5CCN(c6ccc(C7CCC(=O)NC7=O)cn6)CC5)CC4)CC3)sc2-c2ccnc(N)n2)c1F (racemic) [Compound 202, Rac-N-{3-[5-(2-aminopyrimidin-4-yl)-2-[1-({1-[2-(1-{5-[(3R)-2,6-dioxopiperidin-3-yl]pyridin-2-yl}piperidin-4-yl)acetyl]piperidin-4-yl}methyl)piperidin-4-yl]-1,3-thiazol-4-yl]-2-fluorophenyl}propane-1-sulfonamide] | < 10 nM | > 70% |
| CCCS(=O)(=O)Nc1cccc(-c2nc(C3CCN(C(=O)[C@H]4CC[C@H](CN5CCc6cc(C7CCC(=O)NC7=O)ccc6C5)CC4)CC3)sc2-c2ccnc(N)n2)c1F (mixture of isomers) [Compound 222, N-{3-[5-(2-aminopyrimidin-4-yl)-2-{1-[(1r,4r)-4-({6-[(3RS)-2,6-dioxopiperidin-3-yl]-1,2,3,4-tetrahydroisoquinolin-2-yl}methyl)cyclohexanecarbonyl]piperidin-4-yl}-1,3-thiazol-4-yl]-2-fluorophenyl}propane-1-sulfonamide] | > 500 nM | 30 to 70% |
| CCCS(=O)(=O)Nc1cccc(-c2nc(C(C)(C)C)sc2-c2ccnc(Nc3ccc(C4CCN(CC5CCN(c6ccc(C(=O)NC7CCC(=O)NC7=O)nc6)CC5)CC4)cc3)n2)c1F (racemic) [Compound 169, Rac-5-{4-[(4-{4-[(4-{2-tert-butyl-4-[2-fluoro-3-(propane-1-sulfonamido)phenyl]-1,3-thiazol-5-yl}pyrimidin-2-yl)amino]phenyl}piperidin-1-yl)methyl]piperidin-1-yl}-N-[(3R)-2,6-dioxopiperidin-3-yl]pyridine-2-carboxamide] | 50 to 500 nM | 30 to 70% |

Next, values leading:

| DC50 | Dmax | SMILES |
| --- | --- | --- |
| 50 to 500 nM | 30 to 70% | CCCS(=O)(=O)Nc1cccc(-c2nc(C(C)(C)C)sc2-c2ccnc(Nc3ccc4c(c3)CCN(C(=O)[C@@H]3CCN(c5ccc(C6CCC(=O)NC6=O)cn5)C3)C4)n2)c1F (mixture of isomers) [Compound 121, N-(3-{2-tert-butyl-5-[2-({2-[(3R)-1-{5-[(3RS)-2,6-dioxopiperidin-3-yl]pyridin-2-yl}pyrrolidine-3-carbonyl]-1,2,3,4-tetrahydroisoquinolin-6-yl}amino)pyrimidin-4-yl]-1,3-thiazol-4-yl}-2-fluorophenyl)propane-1-sulfonamide] |
| 10 to 50 nM | 30 to 70% | CCCS(=O)(=O)Nc1cccc(-c2nc(C(C)(C)C)sc2-c2ccnc(Nc3ccc(C4CCN(CC5CCN(c6ccc([C@@H]7CCC(=O)NC7=O)cc6)CC5)CC4)cc3)n2)c1F [Compound 90, N-[3-(2-tert-butyl-5-{2-[(4-{1-[(1-{4-[(3S)-2,6-dioxopiperidin-3-yl]phenyl}piperidin-4-yl)methyl]piperidin-4-yl}phenyl)amino]pyrimidin-4-yl}-1,3-thiazol-4-yl)-2-fluorophenyl]propane-1-sulfonamide] |
| 10 to 50 nM | 30 to 70% | CCCS(=O)(=O)Nc1cccc(-c2nc(C(C)(C)C)sc2-c2ccnc(Nc3cccc(OC4CCN(C(=O)C5CCN(c6ccc(C(=O)NC7CCC(=O)NC7=O)nc6)CC5)CC4)c3)n2)c1F (racemic) [Compound 95, Rac-5-[4-(4-{3-[(4-{2-tert-butyl-4-[2-fluoro-3-(propane-1-sulfonamido)phenyl]-1,3-thiazol-5-yl}pyrimidin-2-yl)amino]phenoxy}piperidine-1-carbonyl)piperidin-1-yl]-N-[(3R)-2,6-dioxopiperidin-3-yl]pyridine-2-carboxamide] |
| < 10 nM | > 70% | CCN(C)S(=O)(=O)Nc1cccc(-c2nc(C(C)(C)C)sc2-c2ccnc(Nc3ccc(N4CCN(C(=O)C5CN(c6ccc(C7CCC(=O)NC7=O)cn6)C5)CC4)cn3)n2)c1F (racemic) [Compound 53, Rac-(3S)-3-[6-(3-{4-[6-({4-[2-tert-butyl-4-(3-{[ethyl(methyl)sulfamoyl]amino}-2-fluorophenyl)-1,3-thiazol-5-yl]pyrimidin-2-yl}amino)pyridin-3-yl]piperazine-1-carbonyl}azetidin-1-yl)pyridin-3-yl]piperidine-2,6-dione] |
